# Laboratory results as given in ChEMBL document CHEMBL1122453, “Structure-activity relationships in the antiinflammatory steroids: a pattern-recognition approach” (1983).
# Activity calls are given as the source filed them. No cut-off for these calls is given here.
# Key:
# Homo sapiens [1] = organism: Homo sapiens; assay: Potency relative to fluocinolone 16,17-acetonide(Experimental vasoconstictor activity) in human; 15-45; format: functional
# Rattus norvegicus [2] = organism: Rattus norvegicus; assay: Anti-inflammatory effect in rat granuloma assay, activity relative to hydrocortisone and hydrocortisone 21-acetate; format: functional
# Homo sapiens [3] = organism: Homo sapiens; assay: Potency relative to fluocinolone 16,17-acetonide(Experimental vasoconstictor activity)in human; NA= Not active; format: functional, organism-based
# Homo sapiens [4] = organism: Homo sapiens; assay: Potency relative to fluocinolone 16,17-acetonide(Experimental vasoconstictor activity) in human; format: functional
# Homo sapiens [5] = organism: Homo sapiens; assay: Potency relative to fluocinolone 16,17-acetonide(Experimental vasoconstictor activity) in human;NA =Not active; format: functional, organism-based
# Homo sapiens [6] = organism: Homo sapiens; assay: PPotency relative to fluocinolone 16,17-acetonide(Experimental vasoconstictor activity) in human; NA= Not active; format: functional, organism-based
# Homo sapiens [7] = organism: Homo sapiens
# Rattus norvegicus [8] = organism: Rattus norvegicus; assay: Experimental relative rat granuloma activity (relative to hydrocortisone and hydrocortisone 21-acetate); 200-500; format: functional
# Rattus norvegicus [9] = organism: Rattus norvegicus; assay: Experimental relative rat granuloma activity (relative to hydrocortisone and hydrocortisone 21-acetate); 0.15-0.5; format: functional
# Homo sapiens [10] = organism: Homo sapiens; assay: Potency relative to fluocinolone 16,17-acetonide(Experimental vasoconstictor activity) in human; 16-34; format: functional
# Homo sapiens [11] = organism: Homo sapiens; assay: Potency relative to fluocinolone 16,17-acetonide(Experimental vasoconstictor activity) in human;NA = Not active; format: functional, organism-based
# Homo sapiens [12] = organism: Homo sapiens; assay: Potency relative to fluocinolone 16,17-acetonide in the human vasoconstictor test; format: functional
# Homo sapiens [13] = organism: Homo sapiens; assay: Potency relative to fluocinolone 16,17-acetonide(Experimental vasoconstictor activity) in human; 100-300; format: functional
# Homo sapiens [14] = organism: Homo sapiens; assay: Potency relative to fluocinolone 16,17-acetonide(Experimental vasoconstictor activity) in human; 900-1080; format: functional
smiles,measurement,setting,value
C[C@]12C=CC(=O)C=C1[C@@H](F)C[C@H]1[C@@H]3C[C@@H](O)[C@](O)(C(=O)CO)[C@@]3(C)C[C@H](O)[C@@]12F [FLUOCINOLONE],Potency,Homo sapiens [1],15
same,Potency,Rattus norvegicus [2],19.7
C[C@@H]1C[C@H]2[C@@H]3C[C@H](F)C4=CC(=O)C=C[C@]4(C)[C@H]3[C@@H](O)C[C@]2(C)[C@H]1C(=O)CO [FLUOCORTOLONE],Potency,Homo sapiens [3],inactive
same,Potency,Rattus norvegicus [2],350
CC1(C)O[C@@H]2C[C@H]3[C@@H]4C[C@H](F)C5=CC(=O)C=C[C@]5(C)[C@@]4(F)[C@@H](O)C[C@]3(C)[C@]2(C(=O)CO)O1 [FLUOCINOLONE ACETONIDE],Potency,Rattus norvegicus [2],450
same,Potency,Homo sapiens [4],100
CC1(C)O[C@@H]2C[C@H]3[C@@H]4CCC5=CC(=O)C=C[C@]5(C)[C@H]4[C@@H](O)C[C@]3(C)[C@]2(C(=O)CO)O1 [DESONIDE],Potency,Homo sapiens [5],inactive
same,Potency,Rattus norvegicus [2],66.2
CC1(C)O[C@@H]2CC3C4CCC5=CC(=O)C=CC5(C)C4[C@@H](O)CC3(C)[C@]2(C(=O)CCl)O1 (stereo partly specified),Potency,Homo sapiens [6],inactive
CC1(C)O[C@@H]2CC3C4C[C@H](F)C5=CC(=O)C=CC5(C)[C@@]4(F)[C@@H](O)CC3(C)[C@]2(C(=O)C(=O)OCCl)O1 (stereo partly specified),Potency,Homo sapiens [7],inactive
C[C@@H]1CC2C3CCC4=CC(=O)C=CC4(C)[C@@]3(F)C(O)CC2(C)C1C(=O)CO (stereo partly specified) [DEOXYMETHASONE],Potency,Rattus norvegicus [2],10
same,Potency,Homo sapiens [7],inactive
C[C@@H]1C[C@H]2[C@@H]3C[C@H](F)C4=CC(=O)C=C[C@]4(C)[C@@]3(F)[C@@H](O)C[C@]2(C)[C@@]1(O)C(=O)CO [FLUMETHASONE],Potency,Rattus norvegicus [8],200
CCC(=O)[C@@]1(C)[C@H](C)CC2C3CCC4=CC(=O)C=C[C@]4(C)C3[C@@H](O)C[C@@]21C (stereo partly specified),Potency,Homo sapiens [7],inactive
CCCCC(=O)O[C@]1(C(=O)COC(C)=O)CCC2C3CCC4=CC(=O)C=CC4(C)C3C(O)CC21C (stereo partly specified),Potency,Homo sapiens [7],inactive
CC(=O)OCC(=O)[C@@]1(O)CCC2C3CCC4=CC(=O)CCC4(C)[C@@]3(Cl)[C@@H](Cl)CC21C (stereo partly specified),Potency,Rattus norvegicus [9],0.15
CCCCC(=O)O[C@]1(C(=O)CO)CCC2C3CCC4=CC(=O)CCC4(C)C3C(O)CC21C (stereo partly specified),Potency,Homo sapiens [10],16
CC1CC2C3CCC4=CC(=O)C=CC4(C)[C@@]3(F)C(O)CC2(C)[C@@]1(O)C(=O)COP(=O)(O)O (stereo partly specified),Potency,Homo sapiens [7],inactive
C[C@@H]1C[C@H]2[C@@H]3C[C@H](F)C4=CC(=O)C=C[C@]4(C)[C@H]3[C@@H](O)C[C@]2(C)[C@@]1(O)C(=O)CO [PARAMETHASONE],Potency,Rattus norvegicus [2],63.6
same,Potency,Homo sapiens [7],inactive
C[C@@H]1CC2C3C[C@H](F)C4=CC(=O)C=CC4(C)[C@@]3(F)C(O)CC2(C)C1C(=O)COC(=O)C(C)(C)C (stereo partly specified),Potency,Homo sapiens [7],inactive
CC(=O)OCC(=O)[C@@]1(O)[C@H](C)CC2C3C[C@H](F)C4=CC(=O)C=CC4(C)C3C(O)CC21C (stereo partly specified),Potency,Homo sapiens [11],inactive
same,Potency,Rattus norvegicus [2],60
CCC(=O)O[C@]1(C(=O)C(=O)OCCl)CC[C@H]2C3CCC4=CC(=O)CCC4(C)C3[C@@H](O)CC21C (stereo partly specified),Potency,Homo sapiens [7],inactive
CC1(C)O[C@@H]2CC3C4CCC5=CC(=O)CCC5(C)C4[C@@H](O)CC3(C)[C@]2(C(=O)CCl)O1 (stereo partly specified),Potency,Homo sapiens [7],inactive
CCCC(=O)OCC(=O)[C@@]1(OC(C)=O)CCC2C3C[C@H](F)C4=CC(=O)C=CC4(C)[C@@]3(F)C(O)CC21C (stereo partly specified),Potency,Homo sapiens [7],inactive
CC(=O)O[C@]1(C(=O)CO)CCC2C3CCC4=CC(=O)CCC4(C)C3C(O)CC21C (stereo partly specified),Potency,Homo sapiens [7],inactive
CCC(=O)O[C@]1(C(=O)OCCl)CCC2C3CCC4=CC(=O)CCC4(C)C3[C@@H](O)CC21C (stereo partly specified),Potency,Homo sapiens [7],inactive
CC(=O)OCC(=O)[C@@]1(O)CCC2C3CCC4=CC(=O)C=CC4(C)C3[C@@H](Cl)CC21C (stereo partly specified),Potency,Rattus norvegicus [9],0.15
CC1(C)O[C@@H]2C[C@H]3[C@@H]4CCC5=CC(=O)CC[C@]5(C)[C@@]4(F)[C@@H](O)C[C@]3(C)[C@]2(C(=O)CCl)O1 [HALCINONIDE],Potency,Homo sapiens [12],>360
same,Potency,Homo sapiens [7],inactive
CC1(C)O[C@@H]2C[C@H]3[C@@H]4C[C@H](F)C5=CC(=O)CC[C@]5(C)[C@H]4[C@@H](O)C[C@]3(C)[C@]2(C(=O)CO)O1 [FLURANDRENOLIDE],Potency,Homo sapiens [12],12
same,Potency,Homo sapiens [13],100
CCCCC(=O)OCC(=O)[C@H]1[C@H](C)C[C@H]2[C@@H]3C[C@H](F)C4=CC(=O)C=C[C@]4(C)[C@@]3(F)[C@@H](O)C[C@@]21C,Potency,Homo sapiens [3],inactive
CCCC(=O)O[C@]1(C(C)=O)CCC2C3C[C@H](F)C4=CC(=O)C=CC4(C)[C@@]3(F)C(O)CC21C (stereo partly specified),Potency,Homo sapiens [14],900
CCC(=O)OCC(=O)C1(C)C(C)CC2C3CCC4=CC(=O)C=CC4(C)[C@@]3(F)CCC21C (stereo partly specified),Potency,Homo sapiens [7],inactive
